Assay results taken from ChEMBL document CHEMBL4396865, “Current advances of triazole alcohols derived from fluconazole: Design, in vitro and in silico studies” (2019).
Converted amounts (≈) assume the structure as drawn. One block for each compound: values may come before it.

Experiments:
Assay type in all cases: functional
Pichia kudriavzevii [1] = assay: Antifungal activity against Candida krusei after 24 hrs
Trichophyton rubrum [2] = assay: Antifungal activity against Trichophyton rubrum after 24 hrs
Cryptococcus neoformans [3] = assay: Antifungal activity against Cryptococcus neoformans after 24 hrs
Candida parapsilosis [4] = assay: Antifungal activity against Candida parapsilosis after 24 hrs; conditions: Lodderomyces parapsilosis
Aspergillus fumigatus [5] = assay: Antifungal activity against Aspergillus fumigatus after 24 hrs
Candida albicans [6] = assay: Antifungal activity against Candida albicans ATCC SC5314 after 24 hrs; conditions: ATCC SC5314, 24 h
Candida albicans [7] = assay: Antifungal activity against Candida albicans Y0109 after 24 hrs; conditions: Y0109, 24 h
Nannizzia gypsea = assay: Antifungal activity against Microsporum gypseum after 24 hrs
Pichia norvegensis = assay: Antifungal activity against Candida mycoderma
Candida albicans [8] = assay: Antifungal activity against Candida albicans; conditions: Candida albicans; for MIC: read-out: MIC
Candida albicans [9] = assay: Potency index, ratio of fluconazole MIC to test compound MIC for Candida albicans
Pichia kudriavzevii [10] = assay: Antifungal activity against Candida krusei
Pichia kudriavzevii [11] = assay: Potency index, ratio of fluconazole MIC to test compound MIC for Candida krusei
Candida tropicalis = assay: Antifungal activity against Candida tropicalis; conditions: Candida tropicalis
Kluyveromyces marxianus = assay: Antifungal activity against Candida kefyr; conditions: Kluyveromyces marxianus
Candida albicans [12] = assay: Antifungal activity against Candida albicans ATCC 76615 after 24 hrs by microbroth dilution method; conditions: ATCC 76615, 24 h
Cryptococcus neoformans [13] = assay: Antifungal activity against Cryptococcus neoformans; conditions: Cryptococcus neoformans
Trichophyton rubrum [14] = assay: Antifungal activity against Trichophyton rubrum; conditions: Trichophyton rubrum
Aspergillus fumigatus [15] = assay: Antifungal activity against Aspergillus fumigatus; conditions: Aspergillus fumigatus
Candida parapsilosis [16] = assay: Antifungal activity against Candida parapsilosis; conditions: Lodderomyces parapsilosis
Cryptococcus neoformans [17] = assay: Antifungal activity against Cryptococcus neoformans infected in Caenorhabditis elegans
Cryptococcus neoformans [18] = assay: Potency index, ratio of fluconazole MIC to test compound MIC for Cryptococcus neoformans infected in Caenorhabditis elegans
Candida albicans [19] = assay: Antifungal activity against Candida albicans infected in Caenorhabditis elegans assessed as survival at 16 ug/ml relative to control
Candida parapsilosis [20] = assay: Antifungal activity against fluconalzole-resistant Candida parapsilosis after 24 hrs; conditions: Lodderomyces parapsilosis
Candida albicans [21] = assay: Antifungal activity against fluconalzole-susceptible Candida albicans after 24 hrs
Candida parapsilosis [22] = assay: Antifungal activity against fluconalzole-susceptible Candida parapsilosis after 24 hrs; conditions: Lodderomyces parapsilosis
Candida albicans [23] = assay: Antifungal activity against fluconalzole-resistant Candida albicans after 24 hrs

MIC (Pichia kudriavzevii [1]): 0.0156 to 0.0625 µg/mL (≈ 0.03 to 0.12 µM)
MIC (Trichophyton rubrum [2]): 0.0156 to 0.0625 µg/mL (≈ 0.03 to 0.12 µM)
MIC (Cryptococcus neoformans [3]): 0.0156 to 0.0625 µg/mL (≈ 0.03 to 0.12 µM)
MIC (Candida parapsilosis [4]): 0.0156 to 0.0625 µg/mL (≈ 0.03 to 0.12 µM)
MIC (Aspergillus fumigatus [5]): 0.0156 to 0.0625 µg/mL (≈ 0.03 to 0.12 µM)
MIC (Candida albicans [6]): 0.0156 to 0.0625 µg/mL (≈ 0.03 to 0.12 µM)
MIC (Candida albicans [7]): 0.0156 to 0.0625 µg/mL (≈ 0.03 to 0.12 µM)
MIC (Nannizzia gypsea): 0.0156 to 0.0625 µg/mL (≈ 0.03 to 0.12 µM)
SMILES: OC(Cc1cn(CCOCc2ccc(Br)cc2)nn1)(Cn1cncn1)c1ccc(F)cc1F (centres undefined)

MIC80 (Candida tropicalis): 0.01 to 0.56 µM (≈ 0.00446 to 0.25 µg/mL)
MIC80 (Kluyveromyces marxianus): 0.01 to 0.56 µM (≈ 0.00446 to 0.25 µg/mL)
MIC80 (Candida albicans [12]): 0.01 to 0.56 µM (≈ 0.00446 to 0.25 µg/mL)
MIC80 (Cryptococcus neoformans [13]): 0.01 to 0.56 µM (≈ 0.00446 to 0.25 µg/mL)
MIC80 (Trichophyton rubrum [14]): 0.01 to 0.56 µM (≈ 0.00446 to 0.25 µg/mL)
MIC80 (Aspergillus fumigatus [15]): 0.01 to 0.56 µM (≈ 0.00446 to 0.25 µg/mL)
MIC80 (Candida albicans [8]): 0.01 to 0.56 µM
MIC80 (Candida parapsilosis [16]): 0.01 to 0.56 µM (≈ 0.00446 to 0.25 µg/mL)
SMILES: OC(CN1CCC(OCc2ccccc2F)CC1)(Cn1cncn1)c1ccc(F)cc1F (centres undefined)
Ratio (Candida albicans [9]): 82

MIC (Cryptococcus neoformans [17]): 0.25 µg/mL (≈ 0.668 µM)
SMILES: OC(Cc1cn(C2CCCC2)nn1)(Cn1cncn1)c1ccc(F)cc1F (centres undefined)
Ratio (Cryptococcus neoformans [18]): 8

Second part, the compound before the results:

SMILES: O=C(O)c1cn(C2CC2)c2c(Cl)c(N3CCC(NCC(O)(Cn4cncn4)c4ccc(F)cc4F)C3)c(F)cc2c1=O (centres undefined)
MIC (Pichia norvegensis): 0.25 to 2 µg/mL (≈ 0.415 to 3.32 µM)
MIC (Candida albicans [8]): 0.25 to 2 µg/mL (≈ 0.415 to 3.32 µM)

SMILES: C#CCN(Cc1ccc(F)cc1F)CC(O)(Cn1cncn1)c1ccc(F)cc1F (centres undefined)
Ratio (Candida albicans [9]): 515
MIC80 (Pichia kudriavzevii [10]): 0.00097 µg/mL (≈ 0.00232 µM)
Ratio (Pichia kudriavzevii [11]): 64
MIC80 (Candida albicans [8]): 0.00097 µg/mL

SMILES: O=C(O)c1cn(C2CC2)c2c(Cl)c(N3CCC(NCC(O)(Cn4cncn4)c4ccc(F)c(F)c4)C3)c(F)cc2c1=O (centres undefined)
MIC (Pichia norvegensis): 0.25 to 2 µg/mL (≈ 0.415 to 3.32 µM)
MIC (Candida albicans [8]): 0.25 to 2 µg/mL (≈ 0.415 to 3.32 µM)

SMILES: OC(Cn1cncn1)(Cn1cc(C2CC2)nn1)c1ccc(F)cc1F (centres undefined)
MIC (Candida albicans [8]): 0.125 µg/mL (≈ 0.361 µM)
survival at 16 µg/mL (Candida albicans [19]): 70%

SMILES: O=C(O)c1cn(C2CC2)c2c(Cl)c(N3CCC(NCC(O)(Cn4cncn4)c4ccc(F)cc4)C3)c(F)cc2c1=O (centres undefined)
MIC (Pichia norvegensis): 0.25 to 2 µg/mL (≈ 0.427 to 3.42 µM)
MIC (Candida albicans [8]): 0.25 to 2 µg/mL (≈ 0.427 to 3.42 µM)

SMILES: N#Cc1ccc(COC2CCN(CC(O)(Cn3cncn3)c3ccc(F)cc3F)CC2)cc1 (centres undefined)
MIC80 (Candida tropicalis): 0.01 to 2.33 µM (≈ 0.00453 to 1.06 µg/mL)
Ratio (Candida albicans [9]): 82
MIC80 (Kluyveromyces marxianus): 0.01 to 2.33 µM (≈ 0.00453 to 1.06 µg/mL)
MIC80 (Candida albicans [12]): 0.01 to 2.33 µM (≈ 0.00453 to 1.06 µg/mL)
MIC80 (Cryptococcus neoformans [13]): 0.01 to 2.33 µM (≈ 0.00453 to 1.06 µg/mL)
MIC80 (Trichophyton rubrum [14]): 0.03 to 0.15 µM (≈ 0.0136 to 0.068 µg/mL)
MIC80 (Aspergillus fumigatus [15]): 0.55 to 2.33 µM (≈ 0.249 to 1.06 µg/mL)
MIC80 (Candida albicans [8]): 0.01 µM
MIC80 (Candida parapsilosis [16]): 0.01 to 2.33 µM (≈ 0.00453 to 1.06 µg/mL)

SMILES: OC(Cn1cncn1)(Cn1cnc(SCc2cccc(Cl)c2)n1)c1ccc(F)cc1F (centres undefined)
MIC (Candida parapsilosis [20]): 0.125 to 16 µg/mL (≈ 0.27 to 34.6 µM)
MIC (Candida albicans [21]): 0.063 to 1 µg/mL (≈ 0.136 to 2.16 µM)
MIC (Candida parapsilosis [22]): 0.063 to 1 µg/mL (≈ 0.136 to 2.16 µM)
MIC (Candida albicans [23]): 0.125 to 16 µg/mL (≈ 0.27 to 34.6 µM)
